From EP3427727A1, “COMBINATION OF BIOLOGICALLY ACTIVE SUBSTANCES FOR STABILIZING OR INCREASING THE COLLAGEN CONTENT” (BioActive Food GmbH, priority 2017, dated 2019)

System: Kollagen-Synthese
Assay: Cellular test of collagen synthesis (method of Suh et al.; Biocolor collagen assay, detects collagen types I-IV)
Type: cell-based
From the text: In einem zellulären Test wurde die Wirkung von Vitamin K1 und Lutein auf die Kollagen-Synthese untersucht. Die Untersuchung erfolgte nach dem in Suh et al. (Biol Pharm Bull. 2009 Apr; 32(4):746-9) beschriebenen Verfahren. Das gebildete Kollagen wurde mit Hilfe eines Standardassays (Firma Biocolor Ltd., Carrickfergus, Großbritannien) bestimmt. Der Assay war in der Lage, Kollagen des Typs I-IV zu erfassen.

Compound | activity at 0.5 µM (Vitamin K 0,5 µM, Kontrolle = 100 %, read-out: Kollagen (relativ)) [%] | activation at 0.5 µM (Vitamin K 0,5 µM, increase over control, read-out: Erhöhung (Kollagen)) [%] | activity at 2 µM (Lutein 2 µM, Kontrolle = 100 %, read-out: Kollagen (relativ)) [%] | activation at 2 µM (Lutein 2 µM, increase over control, read-out: Erhöhung (Kollagen)) [%]
CC1=C(C/C=C(\C)CCC[C@H](C)CCC[C@H](C)CCCC(C)C)C(=O)c2ccccc2C1=O [Vitamin K, Vitamin K1] | 116 | 16 | – | –
CC1=C[C@H](O)CC(C)(C)[C@H]1/C=C/C(C)=C/C=C/C(C)=C/C=C/C=C(C)/C=C/C=C(C)/C=C/C1=C(C)C[C@@H](O)CC1(C)C [Lutein, (3R,6'R)-β-ε-Carotin-3,3'-diol] | – | – | 105 | 5
